Where two headings read alike, the source gives them in different places.
Columns and labels:
mast cells = assay: Histamine release assay (compound 48/80 stimulated mast cells); assay type: cell-based, Wistar rats; details: 2 × 10^−5 M, rat peritoneal mast cells; for inhibition at 20 µM: Rattus norvegicus, Mast cell, read-out: Percentage Inhibition of Histamine Release
Description: (§1) The compounds were assessed for their ability to stabilize mast cell membranes in vitro. Mast cells treated with the compounds and un-treated mast cells were stimulated to release histamine. A reduction in histamine release by the treated cells compared to the untreated cells indicates stabilisation of the membrane. The compounds were assessed for their ability to relax smooth muscle in vitro. Intestinal smooth muscle was stimulated to contract, using calcium chloride and subsequently treated with the compounds, relaxation of the contraction was measured for each compound. The effects of the compounds were also studied on relaxation of guinea-pig tracheal muscle. In the rat paw oedema test, the drugs were administered systemically prior to inducing inflammation by the injection of carageenan below the plantar aponeurosis of the hind paw. The volume of the paw was determined both before and after treatment as an index of oedema. In the mouse ear oedema test, the drugs were administered topically prior to inducing inflammation by the topical application of arachidonic acid. The width of the ear was determined both before and after treatment as an index of oedema.
The buffered salt solution (BSS) was prepared in advance (NaCl 137 mM; KCl 2.7 mM; MgCl2 1.0 mM; CaCl2 0.5 mM, NaH2PO4 0.4 mM; Glucose 5.6 mM; HEPES 10 mM). This was dispensed into test tubes and heated to 37° C., each test tube contained 4.5 ml BSS. The solvent blank was supplemented with 0.5% (v/v) dimethyl sulphoxide (DMSO) or 0.5% (v/v) distilled water (dH2O). The two positive controls were supplemented with 0.5% (v/v) dH2O/2×10^−5M disodium cromoglycate (DSCG) and 0.5% (v/v) DMSO/2×10^−5M DSCG. The test compounds' incubation tubes contained 2×10^−5M test compound/0.5% (v/v) DMSO. The basal release, maximum release and total histamine content incubation tubes contained no additions.
Female Wistar rats (200-300 g) were killed in an atmosphere of saturated CO2. Pre-warmed BSS (10 ml) was injected i.p. and the abdomen was massaged for 3 min. The BSS, with suspended mast cells and other cells, was aspirated following a mid-line incision. The aspirate was centrifuged for 5 min at 400 g and the supernatant removed. The cells were re-suspended in BSS, at 4° C., and centrifuged as before the cells were washed in this manner a total of three times. Following the final wash, the pelleted cells were stored at 4° C., for use as soon as possible.
The cells were re-suspended in 7 ml BSS. From this, 0.5 ml aliquots were transferred to each of the incubation tubes. After 10 min at 37° C. with gentle agitation, Compound 48/80 was added to a final concentration of […], in order to stimulate histamine release. The cell stimulation was stopped after 2 min by the addition of 0.5 ml ice cold BSS, the incubation tubes were transferred to an ice bath. The cell suspensions were centrifuged for 5 min at 400 g. The “total histamine content” tube was placed at 100° C. for 2 min prior to centrifugation. The supernatants were retained for histamine assay.
To 2 ml of supernatant from each tube was added 0.4 ml of 1M NaOH and 0.1 ml oPT (1% (w/v) in methanol). This was incubated at room temperature for 4 min. The reaction was stopped by the addition of 0.2 ml of 3M HCl. The supernatant from each incubation tube was assayed in duplicate and run simultaneously with a standard curve in the range 0-1000 ng/ml. The presence of the fluorescent product of the reaction was measured using a Shimazu RF-1501 spectrofluorophotometer set at λex=360 nm, λem=450 nm.
Each drug was tested on at least five animals (n=5). The results were expressed as a percentage of maximum, compound 48/80 induced, histamine release in the solvent blank sample. Each drug was compared to DSCG on the same tissues. The basal histamine release in untreated cells was noted, expressed as a percentage of the total histamine content of the cells in suspension. […]

mouse ear oedema = assay: Mouse ear oedema model (arachidonic acid induced); assay type: in vivo, Laca mice; details: 300 μg per ear topically 30 min prior to 400 μg arachidonic acid; 1 hour after arachidonic acid; n=4
Description: as §1
The mouse ear oedema model was performed using Laca mice (25-35 g), of either sex. The animals were sedated with fentanyl/fluanisone (Hypnorm, Janssen). One ear was treated by the topical application of one of a range of test compounds, indomethacin or dexamethasone (all at 300 μg ear in acetone) drug. After 30 min, oedema was induced by the topical application of arachidonic acid (10 μl at […] in acetone). The thickness of each ear was measured, both before and 60 min after the induction of oedema, using a micrometer screw gauge. Ear oedema was calculated by comparing the ear width before and after induction of oedema and expressed as percentage normal.
Responses of the mouse ear to single doses of a range of compounds compared to the response to indomethacin and dexamethasone, each at a dose of 300 μg per ear administered topically 30 min prior to administration of 400 μg of arachidonic acid. Values are expressed as the percentage increase in ear thickness 1 hour after administration of arachidonic acid (all n=4, solvent controls (n=8)).

ileum = assay: Smooth muscle effects: CaCl2 induced contractions of ileum; parameters: species or system Guinea pigs; details: for inhibition at 0.03 µM / inhibition at 0.1 µM / inhibition at 0.3 µM / inhibition at 1 µM / inhibition at 3 µM / inhibition at 10 µM: Cavia porcellus, read-out: Percentage Inhibition of CaCl2 Induced Contractions
Description: as §1
(§2) Guinea pigs (350 g approx.), of either sex, were killed in an atmosphere of saturated CO2. The abdomen was opened by a mid-line incision and the small intestine was removed. The trachea was removed and sectioned between the cartilage rings, which were then split through.
(§3) Segments of ileum (1-1.5 cm) were suspended in a high potassium, no calcium Krebs buffer (NaCl 160.44 mM); KCl 45 mM; MgCl2 0.54 mM; NaH2PO4 0.89 mM; NaH2CO3 24.9 mM; Glucose 11.1 mM). Tracheal sections were suspended in normal Krebs buffer (NaCl […]; KCl 4.7 mM; CaCl2 2.5 mM; MgCl2 0.54 mM; NaH2PO4 0.89 mM; NaHCO3 24.9 mM; Glucose 11.1 mM). The solutions were maintained at 37° C. by a jacketed organ bath and gassed with 95% O2 and 5% CO2. The tissues were anchored by thread to the bottom of the organ bath and suspended from force displacement transducers under a resting tension of 1 g approx. in the case of ileum and 4 g approx. in the case of trachea. Isotonic contractions were recorded using a MacLab/4e system in conjunction with the Chart 3.3.1 software package. Surplus tissue was stored at 4° C. in Krebs buffer, for a maximum of 48 hours.
(§4) Four segments of tissue were suspended and observed concurrently. Contractions were initiated by the addition of 25 μl of 1M CaCl2 (a final concentration of 2.5 mM). The contractions stabilized with time, 10-15 min, and could be maintained for up to 45 min. from the addition of the CaCl2. The tracheal sections were allowed to develop spontaneous resting tension over a period of 30 mins.
Stock solutions of drug were prepared at 10^−3M in 50% (v/v) DMSO. These were diluted to give; 10^−4M in 5% (v/v) DMSO and 10^−5M in 0.5% (v/v) DMSO. In cases of poor solubility the 10^−3M stock was made up in higher concentrations of DMSO. Solvent ‘blank’ solutions were prepared containing 50%, 5% and 0.5% (v/v) DMSO (or as appropriate). […] A second cumulative dose-response assay was carried out using DMSO ‘blank’ solutions only.
(§5) Each drug was tested, in duplicate, on at least three different animals (n=3). The results were expressed as percentage inhibition of the CaCl2 induced contraction in the case of ideal tissue and percentage relaxation in the case of tracheal tissue, for each tissue, at each concentration of drug in DMSO. The effect of DMSO, for each tissue at each concentration, was subtracted from the effect of the drug in DMSO, to give the effect of the drug alone. A log dose vs. response curve was plotted for each drug using the mean and the standard error of the mean for the cumulated results.

trachea = assay: Smooth muscle effects: spontaneous tone of tracheal sections; parameters: species or system Guinea pigs; details: guinea pig trachea, percentage relaxation; for inhibition at 3 µM / inhibition at 10 µM: Cavia porcellus
Description: as §1, §2, §3, §4
Stock solutions of drug were prepared at 10^−3M in 50% (v/v) DMSO. These were diluted to give; 10^−4M in 5% (v/v) DMSO and 10^−5M in 0.5% (v/v) DMSO. In cases of poor solubility the 10^−3M stock was made up in higher concentrations of DMSO. Solvent ‘blank’ solutions were prepared containing 50%, 5% and 0.5% (v/v) DMSO (or as appropriate). A cumulative dose-response assay was carried out in the range 5×10^−8M to 10^−5M. A second cumulative dose-response assay was carried out using DMSO ‘blank’ solutions only.
as §5

[1] = 3 × 10^−6 M, guinea pig ileum, DMSO effect subtracted
[2] = 10^−5 M, guinea pig ileum, DMSO effect subtracted

| SMILES | percentage increase in ear thickness (Mean %) (mouse ear oedema) [%] | inhibition at 20 µM (mast cells) [%] | inhibition at 3 µM (ileum; [1]) [%] | inhibition at 10 µM (ileum; [2]) [%] | inhibition at 3 µM (trachea; 3 × 10^−6 M) [%] | inhibition at 10 µM (trachea; 10^−5 M) [%] | further results |
| --- | --- | --- | --- | --- | --- | --- | --- |
| C=CCN(C1CCc2ccccc21)C1CC(=O)c2ccccc21 (stereo not drawn) [Compound 5C6, 3-(N-prop-2-enyl-N-1-indanylamino)-indan-1-one] | 52.0 |  |  |  |  |  | Percentage Inhibition of Histamine Release (mast cells): 77.77%; inhibition at 0.03 µM (ileum): -1%; inhibition at 0.1 µM (ileum): 0.02%; inhibition at 0.3 µM (ileum): 0.36%; inhibition at 1 µM (ileum): 1.31%; inhibition at 3 µM (ileum): 8.84%; inhibition at 10 µM (ileum): 20.9% |
| COc1ccc2c(c1)c(CC(=O)O)c(C)n2C(=O)c1ccc(Cl)cc1 [Indomethacin, reference compound] | 39.6 |  |  |  |  |  |  |
| C=CCN(C1CC(=O)c2ccccc21)[C@H]1CCc2ccccc21 (stereo partly drawn) [5C6 BS] |  |  |  |  |  |  | Percentage Inhibition of Histamine Release (mast cells): 80.29%; Percentage Inhibition of CaCl2 Induced Contractions (ileum; [1]): 13.66%; Percentage Inhibition of CaCl2 Induced Contractions (ileum; [2]): 31.47%; Percentage Inhibition of Spontaneous Tone (trachea; 3 × 10^−6 M): 2.03%; Percentage Inhibition of Spontaneous Tone (trachea; 10^−5 M): 4.09% |
| CC(=O)N(C1CCc2ccccc21)C1CC(=O)c2ccccc21 (stereo not drawn) [Compound 5C9, N-1-Indanyl-N-3-indan-1-onylethanamide] |  | 14.3 | 9.06 | 18.3 | 2.64 | 2.38 |  |
| C=CCN(C1CC(=O)c2ccccc21)[C@H]1CCc2ccccc21 (stereo partly drawn) [5C6 TS] |  | 75.2 |  | 19.4 | 1.63 | 2.71 | Percentage Inhibition of CaCl2 Induced Contractions (ileum; [1]): 5.29% |
| C[C@@H]1C[C@H]2[C@@H]3CCC4=CC(=O)C=C[C@]4(C)[C@@]3(F)[C@@H](O)C[C@]2(C)[C@@]1(O)C(=O)CO [Dexamethasone, reference compound] | 37.9 |  |  |  |  |  |  |
| CN(C1Cc2ccccc2C1)C1CC(=O)c2ccccc21 (stereo not drawn) [Compound 6C6, 3-(N-methyl-N-2-indanylamino)-indan-1-one] | 73.0 | 68 | 12.6 | 22.9 |  |  | inhibition at 0.3 µM (ileum; 3 × 10^−7 M, guinea pig ileum, DMSO effect subtracted): 4.64%; inhibition at 0.03 µM (ileum; 3 × 10^−8 M, guinea pig ileum, DMSO effect subtracted): 0.15%; inhibition at 1 µM (ileum; 10^−6 M, guinea pig ileum, DMSO effect subtracted): 9.01%; inhibition at 0.1 µM (ileum; 10^−7 M, guinea pig ileum, DMSO effect subtracted): 2.75% |
| CC(=O)N(C1Cc2ccccc2C1)C1CC(=O)c2ccccc21 (stereo not drawn) [Compound 6C11, N-2-Indanyl-N-3-indan-1-onylethanamide] | 26.0 | 4.26 | 8 | 12.5 |  |  |  |
| C=CCN(C1CCc2ccccc21)C1CC(=O)c2ccccc21 (stereo not drawn) [5C6 TR] |  | 80 |  |  | 1.5 | 4.97 |  |
| C=CCN(C1Cc2ccccc2C1)C1CC(=O)c2ccccc21 (stereo not drawn) [Compound 6C7, 3-(N-prop-2-enyl-N-2-indanylamino)-indan-1-one] | 71.5 | 89.5 |  |  |  |  | inhibition at 0.03 µM (ileum): 1.16%; inhibition at 0.1 µM (ileum): 3.15%; inhibition at 0.3 µM (ileum): 4.52%; inhibition at 1 µM (ileum): 5.36%; inhibition at 3 µM (ileum): 10.7%; inhibition at 10 µM (ileum): 21.8% |
